The source of these data is publication PMC7747997 (Plant Communications, 2019).

Holding throughout (assay): X-ray crystal structure, […] Å
Type in all cases: binding

Test [1] addresses T1, SrUGT76G1 (Stevia rebaudiana, UniProt Q6VAB4).
T1 sequence (Q6VAB4 1-458): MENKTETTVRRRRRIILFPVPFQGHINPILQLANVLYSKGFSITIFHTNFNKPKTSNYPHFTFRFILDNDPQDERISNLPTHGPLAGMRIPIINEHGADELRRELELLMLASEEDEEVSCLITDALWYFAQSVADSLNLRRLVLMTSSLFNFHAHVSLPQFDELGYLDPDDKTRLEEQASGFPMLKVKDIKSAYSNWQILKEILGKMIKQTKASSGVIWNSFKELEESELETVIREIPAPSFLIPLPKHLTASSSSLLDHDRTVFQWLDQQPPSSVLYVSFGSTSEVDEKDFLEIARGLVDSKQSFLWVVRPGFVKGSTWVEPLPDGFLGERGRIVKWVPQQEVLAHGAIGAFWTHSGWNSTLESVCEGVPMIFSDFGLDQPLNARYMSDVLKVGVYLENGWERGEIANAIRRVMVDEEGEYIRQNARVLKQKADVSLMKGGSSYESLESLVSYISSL
The conditions noted are these: donor site; crystals set up with UDP-xylose and Sb.

For test [2], the target named is T1, SrUGT76G1. The settings on record: donor site; crystals set up with UDP-glucose.
The target of test [3] is T1, SrUGT76G1. The conditions noted are these: complex with UDP (crystals set up with UDP-xylose); acceptor pocket.

Regarding `O=c1ccn([C@@H]2O[C@H](COP(=O)(O)OP(=O)(O)O[C@H]3OC[C@@H](O)[C@H](O)[C@H]3O)[C@@H](O)[C@H]2O)c(=O)[nH]1` [UDP-xylose], the “X-ray crystal structure, 2.5 Å” value at SrUGT76G1 [1] is “UDP-xylose (UDPX-SrUGT76G1)”.
As to `O=c1ccn([C@@H]2O[C@H](COP(=O)(O)OP(=O)(O)O)[C@@H](O)[C@H]2O)c(=O)[nH]1` [UDP], the “X-ray crystal structure, 2.6 Å” value at SrUGT76G1 [2] was “we crystallized SrUGT76G1 complexed with UDP (UDP-SrUGT76G1)”.
On to `C=C1C[C@@]23CC[C@H]4[C@@](C)(CCC[C@@]4(C)C(=O)O)[C@@H]2CC[C@]1(O[C@@H]1O[C@H](CO)[C@@H](O)[C@H](O)[C@H]1O)C3` [steviolmonoside], for which, at SrUGT76G1 [3], the “X-ray crystal structure, 2.4 Å” value was “UDP and steviolmonoside (UDP-Sm-SrUGT76G1)”.
